Patent publication EP4603105A1, “PHARMACEUTICAL COMPOSITION CONTAINING CYCLIC COMPOUND HAVING SELECTIVE KRAS INHIBITORY EFFECT AGAINST HRAS AND NRAS” (CHUGAI SEIYAKU KABUSHIKI KAISHA, priority 2022, dated 2024)

Key:
HRAS wild-type protein = HRAS wild-type protein (Homo sapiens, UniProt P01112); test: Binding to HRAS by surface plasmon resonance (SPR), KD and KD ratio to KRAS; settings: ratio of the KD value with respect to HRAS wild-type protein to the KD value with respect to KRAS
Summary of the method: (§1)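 Compound binding is evaluated by SPR single-cycle kinetics, with concentrations added intermittently from low to high for 75 s each. Target surfaces carry GDP-loaded biotinylated Avi-RAS at about 100–300 RU, regenerated after each cycle; temperature 30°C. A 1:1 binding model gives KD.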

[1] = tested on: human lung cancer strain NCI-H441; type: cell-based
Summary of the method: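 Proliferation was scored by […] measured after the reagent was added to cultures kept at 37°C in 5% carbon dioxide.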

[2] = target: GDP-bound NRAS wild-type protein (Homo sapiens, UniProt P01111); test: Binding to NRAS by surface plasmon resonance (SPR), KD and KD ratio to KRAS; settings: ratio of the KD value with respect to GDP-bound NRAS wild-type protein to the KD value with respect to KRAS
Summary of the method: as §1

HRAS wild-type protein, sequence (P01112 whole entry): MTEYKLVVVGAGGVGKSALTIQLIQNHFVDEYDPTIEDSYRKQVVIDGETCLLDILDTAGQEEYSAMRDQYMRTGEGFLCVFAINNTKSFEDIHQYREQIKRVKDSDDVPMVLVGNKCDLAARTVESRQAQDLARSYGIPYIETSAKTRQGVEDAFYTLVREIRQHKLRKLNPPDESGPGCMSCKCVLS
GDP-bound NRAS wild-type protein, sequence (P01111 whole entry): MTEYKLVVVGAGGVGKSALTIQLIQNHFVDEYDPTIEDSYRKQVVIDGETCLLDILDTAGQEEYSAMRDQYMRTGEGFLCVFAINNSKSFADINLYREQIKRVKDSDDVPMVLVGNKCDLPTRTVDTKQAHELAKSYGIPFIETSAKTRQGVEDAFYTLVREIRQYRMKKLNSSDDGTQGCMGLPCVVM

SMILES	HRAS /KRAS (HRAS wild-type protein)	IC50 [1] [nM]	NRAS /KRAS [2]
CCO[C@@H]1C[C@H]2C(=O)NC3(CCC3)C(=O)N(C)[C@@H](C3CCCC3)C(=O)N(CCC3CCC3)[C@H](C(=O)N(C)C)CC(=O)N(C)[C@@H](CC)C(=O)N[C@@H]([C@@H](C)CC)C(=O)N(C)CC(=O)N(C)[C@H]3CCCCCN(C3=O)[C@@H](Cc3ccc(C(F)(F)F)cc3)C(=O)N(C)CC(=O)N[C@@H](CCc3cc(F)c(C(F)(F)F)c(F)c3)C(=O)N2C1 [PP0635]	B (a compound having 3 or more and less than 10 is denoted as B)	85.6	B (a compound having 3 or more and less than 10 is denoted as B)
CCO[C@@H]1C[C@H]2C(=O)NC3(CCC3)C(=O)N(C)[C@@H](C3CCCC3)C(=O)N(CCC3CCCC3)[C@H](C(=O)N(C)C)CC(=O)N(C)[C@@H](CC)C(=O)N[C@@H]([C@@H](C)CC)C(=O)N(C)CC(=O)N(C)[C@H]3CCCCCN(C3=O)[C@@H](Cc3ccc(C(F)(F)F)cc3)C(=O)N(C)CC(=O)N[C@@H](CCc3cc(F)c(C(F)(F)F)c(F)c3)C(=O)N2C1 [PP0636]	A (a compound having 10 or more and less than 20 is denoted as A)	729	A (a compound having 10 or more and less than 20 is denoted as A)
CCO[C@@H]1C[C@H]2C(=O)NC3(CCC3)C(=O)N(C)[C@@H](C3CCCC3)C(=O)N(CCc3ccccc3)[C@H](C(=O)N(C)C)CC(=O)N(C)[C@@H](CC)C(=O)N[C@@H]([C@@H](C)CC)C(=O)N(C)CC(=O)N(C)[C@H]3CCCCCN(C3=O)[C@@H](Cc3ccc(C(F)(F)F)cc3)C(=O)N(C)CC(=O)N[C@@H](CCc3cc(F)c(C(F)(F)F)c(F)c3)C(=O)N2C1 [PP0637]	B (a compound having 3 or more and less than 10 is denoted as B)	952	B (a compound having 3 or more and less than 10 is denoted as B)
CCCN1C(=O)[C@H](C2CCCC2)N(C)C(=O)C2(CCC2)NC(=O)[C@@H]2C[C@@H](OCC)CN2C(=O)[C@H](CCc2cc(F)c(C(F)(F)F)c(F)c2)NC(=O)CN(C)C(=O)[C@H](Cc2ccc(C(F)(F)F)cc2)N2CCCCC[C@@H](C2=O)N(C)C(=O)CN(C)C(=O)[C@H]([C@@H](C)CC)NC(=O)[C@H](CC(C)C)N(C)C(=O)C[C@H]1C(=O)N1CCOCC1 [PP0639]	B (a compound having 3 or more and less than 10 is denoted as B)	631	B (a compound having 3 or more and less than 10 is denoted as B)
CCO[C@@H]1C[C@H]2C(=O)NC3(CCC3)C(=O)N(C)[C@@H](C3CCCC3)C(=O)N(CC)[C@H](C(=O)N(C)C)CC(=O)N(C)[C@@H](CC)C(=O)N[C@@H]([C@@H](C)CC)C(=O)N(C)CC(=O)N(C)[C@H]3CCCCN(C3=O)[C@@H](Cc3ccc(C(F)(F)F)cc3)C(=O)N(C)CC(=O)N[C@@H](CCc3cc(F)c(C(F)(F)F)c(F)c3)C(=O)N2C1 [PP0643]	B (a compound having 3 or more and less than 10 is denoted as B)	6.5	C (A compound having a KD ratio of 0.1 or more and less than 3 is denoted as C)
CCO[C@@H]1C[C@H]2C(=O)NC3(CCC3)C(=O)N(C)[C@@H](C3CCCC3)C(=O)N(CCC3CCC3)[C@H](C(=O)N(C)C)CC(=O)N(C)[C@@H](CC)C(=O)N[C@@H]([C@@H](C)CC)C(=O)N(C)CC(=O)N(C)[C@H]3CCCCN(C3=O)[C@@H](Cc3ccc(C(F)(F)F)cc3)C(=O)N(C)CC(=O)N[C@@H](CCc3cc(F)c(C(F)(F)F)c(F)c3)C(=O)N2C1 [PP0645]	B (a compound having 3 or more and less than 10 is denoted as B)	12	B (a compound having 3 or more and less than 10 is denoted as B)
CCO[C@@H]1C[C@H]2C(=O)NC3(CCC3)C(=O)N(C)[C@@H](C3CCCC3)C(=O)N(CCc3ccccc3)[C@H](C(=O)N(C)C)CC(=O)N(C)[C@@H](CC)C(=O)N[C@@H]([C@@H](C)CC)C(=O)N(C)CC(=O)N(C)[C@H]3CCCCN(C3=O)[C@@H](Cc3ccc(C(F)(F)F)cc3)C(=O)N(C)CC(=O)N[C@@H](CCc3cc(F)c(C(F)(F)F)c(F)c3)C(=O)N2C1 [PP0647]	B (a compound having 3 or more and less than 10 is denoted as B)	45	C (A compound having a KD ratio of 0.1 or more and less than 3 is denoted as C)
CCO[C@@H]1C[C@H]2C(=O)NC3(CCC3)C(=O)N(C)[C@@H](C3CCCC3)C(=O)N(CC)[C@H](C(=O)N3CCOCC3)CC(=O)N(C)[C@@H](CC(C)C)C(=O)N[C@@H]([C@@H](C)CC)C(=O)N(C)CC(=O)N(C)[C@H]3CCCCN(C3=O)[C@@H](Cc3ccc(C(F)(F)F)cc3)C(=O)N(C)CC(=O)N[C@@H](CCc3cc(F)c(C(F)(F)F)c(F)c3)C(=O)N2C1 [PP0648]	B (a compound having 3 or more and less than 10 is denoted as B)	20.8	B (a compound having 3 or more and less than 10 is denoted as B)
CCCN1C(=O)[C@H](C2CCCC2)N(C)C(=O)C2(CCC2)NC(=O)[C@@H]2C[C@@H](OCC)CN2C(=O)[C@H](CCc2cc(F)c(C(F)(F)F)c(F)c2)NC(=O)CN(C)C(=O)[C@H](Cc2ccc(C(F)(F)F)cc2)N2CCCC[C@@H](C2=O)N(C)C(=O)CN(C)C(=O)[C@H]([C@@H](C)CC)NC(=O)[C@H](CC(C)C)N(C)C(=O)C[C@H]1C(=O)N1CCOCC1 [PP0649]	B (a compound having 3 or more and less than 10 is denoted as B)	30.2	C (A compound having a KD ratio of 0.1 or more and less than 3 is denoted as C)
CCO[C@@H]1C[C@H]2C(=O)NC3(CCC3)C(=O)N(C)[C@@H](C3CCCC3)C(=O)N(CCC3CCC3)[C@H](C(=O)N3CCOCC3)CC(=O)N(C)[C@@H](CC(C)C)C(=O)N[C@@H]([C@@H](C)CC)C(=O)N(C)CC(=O)N(C)[C@H]3CCCCN(C3=O)[C@@H](Cc3ccc(C(F)(F)F)cc3)C(=O)N(C)CC(=O)N[C@@H](CCc3cc(F)c(C(F)(F)F)c(F)c3)C(=O)N2C1 [PP0650]	B (a compound having 3 or more and less than 10 is denoted as B)	45.7	C (A compound having a KD ratio of 0.1 or more and less than 3 is denoted as C)
CCO[C@@H]1C[C@H]2C(=O)NC3(CCC3)C(=O)N(C)[C@@H](C3CCCC3)C(=O)N(CCC3CCCC3)[C@H](C(=O)N3CCOCC3)CC(=O)N(C)[C@@H](CC(C)C)C(=O)N[C@@H]([C@@H](C)CC)C(=O)N(C)CC(=O)N(C)[C@H]3CCCCN(C3=O)[C@@H](Cc3ccc(C(F)(F)F)cc3)C(=O)N(C)CC(=O)N[C@@H](CCc3cc(F)c(C(F)(F)F)c(F)c3)C(=O)N2C1 [PP0651]	B (a compound having 3 or more and less than 10 is denoted as B)	136	B (a compound having 3 or more and less than 10 is denoted as B)
CC[C@H](C)[C@@H]1NC(=O)[C@H](CC)N(C)C(=O)C[C@@H](C(=O)N(C)C)N(C)C(=O)[C@H](C2CCCC2)N(C)C(=O)C2(CCC2)NC(=O)[C@@H]2CCCCN2C(=O)[C@H](CCc2cc(F)c(C(F)(F)F)c(F)c2)NC(=O)CN(C)C(=O)[C@H](Cc2ccc(C(F)(F)F)cc2)N2CCCCC[C@@H](C2=O)N(C)C(=O)CN(C)C1=O [PP0655]	B (a compound having 3 or more and less than 10 is denoted as B)	125	B (a compound having 3 or more and less than 10 is denoted as B)
CC[C@H](C)[C@@H]1NC(=O)[C@H](CC)N(C)C(=O)C[C@@H](C(=O)N(C)C)N(C)C(=O)[C@H](C2CCCC2)N(C)C(=O)C2(CCC2)NC(=O)[C@@H]2C[C@@H](N3CCC(F)(F)CC3)CN2C(=O)[C@H](CCc2cc(F)c(C(F)(F)F)c(F)c2)NC(=O)CN(C)C(=O)[C@H](Cc2ccc(C(F)(F)F)cc2)N2CCCC[C@@H](C2=O)N(C)C(=O)CN(C)C1=O [PP0656]	C (A compound having a KD ratio of 0.1 or more and less than 3 is denoted as C)	26.5	C (A compound having a KD ratio of 0.1 or more and less than 3 is denoted as C)
CC[C@H](C)[C@@H]1NC(=O)[C@H](CC)N(C)C(=O)C[C@@H](C(=O)N(C)C)N(C)C(=O)[C@H](C2CCCC2)N(C)C(=O)C2(CCC2)NC(=O)[C@@H]2CCN2C(=O)[C@H](CCc2cc(F)c(C(F)(F)F)c(F)c2)NC(=O)CN(C)C(=O)[C@H](Cc2ccc(C(F)(F)F)cc2)N2CCCC[C@@H](C2=O)N(C)C(=O)CN(C)C1=O [PP0657]	B (a compound having 3 or more and less than 10 is denoted as B)	32.9	B (a compound having 3 or more and less than 10 is denoted as B)
CC[C@H](C)[C@@H]1NC(=O)[C@H](CC)N(C)C(=O)C[C@@H](C(=O)N(C)C)N(C)C(=O)[C@H](C2CCCC2)N(C)C(=O)C2(CCC2)NC(=O)[C@@H]2CCCCN2C(=O)[C@H](CCc2cc(F)c(C(F)(F)F)c(F)c2)NC(=O)CN(C)C(=O)[C@H](Cc2ccc(C(F)(F)F)cc2)N2CCCC[C@@H](C2=O)N(C)C(=O)CN(C)C1=O [PP0658]	B (a compound having 3 or more and less than 10 is denoted as B)	10.3	C (A compound having a KD ratio of 0.1 or more and less than 3 is denoted as C)
CC[C@H](C)[C@@H]1NC(=O)[C@H](CC)N(C)C(=O)C[C@@H](C(=O)N(C)C)N(CC)C(=O)[C@H](C2CCCC2)N(C)C(=O)C2(CCC2)NC(=O)[C@@H]2C[C@H](N3CCC(F)(F)CC3)CN2C(=O)[C@H](CCc2cc(F)c(C(F)(F)F)c(F)c2)NC(=O)CN(C)C(=O)[C@H](Cc2ccc(C(F)(F)F)cc2)N2CCCC[C@@H](C2=O)N(C)C(=O)CN(C)C1=O [PP0659]	B (a compound having 3 or more and less than 10 is denoted as B)	184	B (a compound having 3 or more and less than 10 is denoted as B)
